Patent US11178871B2, “Herbicidal pyrimidine compounds” (BASF SE, priority 2016, dated 2021)

What was measured:
Type in all cases: in vivo
Setaria viridis = assay: greenhouse test, post-emergence treatment, SETVI
Text: (§1) The culture containers used were plastic flowerpots containing loamy sand with approximately 3.0% of humus as the substrate. The seeds of the test plants were sown separately for each species.
(§2) For the post-emergence treatment, the test plants were first grown to a height of 3 to 15 cm, depending on the plant habit, and only then treated with the active ingredients which had been suspended or emulsified in water. For this purpose, the test plants were either sown directly and grown in the same containers, or they were first grown separately as seedlings and transplanted into the test containers a few days prior to treatment.
(§3) Depending on the species, the plants were kept at 10-25° C. or 20-35° C., respectively.
(§4) The test period extended over 2 to 4 weeks. During this time, the plants were tended, and their response to the individual treatments was evaluated.
(§5) Evaluation was carried out using a scale from 0 to 100. 100 means no emergence of the plants, or complete destruction of at least the aerial moieties, and 0 means no damage, or normal course of growth. A good herbicidal activity is given at values of at least 70 and a very good herbicidal activity is given at values of at least 85.
(§6) The plants used in the greenhouse experiments were of the following species: […]

Amaranthus retroflexus = assay: greenhouse test, post-emergence treatment, AMARE
Text: as §1, §2, §3, §4, §5, §6

Echinocloa crus-galli [1] = assay: greenhouse test, post-emergence treatment, ECHCG; conditions: post-emergence
Text: as §1, §2, §3, §4, §5, §6

Avena fatua = assay: greenhouse test, post-emergence treatment, AVEFA
Text: as §1, §2, §3, §4, §5, §6

Alopecurus myosuroides = assay: greenhouse test, post-emergence treatment, ALOMY; conditions: post-emergence
Text: as §1, §2, §3, §4, §5, §6

Apera spica-venti = assay: greenhouse test, pre-emergence treatment, APESV
Text: as §1
(§7) For the pre-emergence treatment, the active ingredients, which had been suspended or emulsified in water, were applied directly after sowing by means of finely distributing nozzles. The containers were irrigated gently to promote germination and growth and subsequently covered with transparent plastic hoods until the plants had rooted. This cover caused uniform germination of the test plants, unless this had been impaired by the active ingredients.
as §3, §4, §5, §6

Echinocloa crus-galli [2] = assay: greenhouse test, pre-emergence treatment, ECHCG
Text: as §1, §7, §3, §4, §5, §6

Ic1ccccc1-c1cnc(C2CCC2)nc1-c1ccco1 [Ex. 78]
herbicidal activity (Setaria viridis; 1000 g/ha): very good (a very good herbicidal activity is given at values of at least 85)

CCOC(=O)Cc1nc(OC)ncc1-c1ccccc1Cl [Ex. 226]
herbicidal activity (Amaranthus retroflexus; 500 g/ha): very good (a very good herbicidal activity is given at values of at least 85)

CCc1ncc(-c2ccccc2Br)c(-c2ccco2)n1 [Ex. 62]
herbicidal activity (Setaria viridis; 500 g/ha): very good (a very good herbicidal activity is given at values of at least 85)

CC(Br)c1ncc(-c2ccccc2Cl)c(CBr)n1 (stereo not drawn) [Ex. 51]
herbicidal activity (Setaria viridis; 1000 g/ha): very good (a very good herbicidal activity is given at values of at least 85)

CCOP(=O)(OCC)C(Cc1nc(C2CC2)ncc1-c1ccccc1Cl)P(=O)(OCC)OCC [Ex. 88]
herbicidal activity (Setaria viridis; 2000 g/ha): very good (a very good herbicidal activity is given at values of at least 85)

OC1(c2nc(C3CC3)ncc2-c2ccccc2Cl)CCCC1 [Ex. 127]
herbicidal activity (Amaranthus retroflexus; 2000 g/ha): very good (a very good herbicidal activity is given at values of at least 85)

O=C(O)/C=C/c1nc(C2CC2)ncc1-c1ccccc1Cl [Ex. 131]
herbicidal activity (Echinocloa crus-galli [1]; 2000 g/ha): very good (a very good herbicidal activity is given at values of at least 85)
herbicidal activity (Amaranthus retroflexus; 2000 g/ha): very good (a very good herbicidal activity is given at values of at least 85)

Cc1occc1-c1nc(C2CC2)ncc1-c1ccccc1Br [Ex. 238]
herbicidal activity (Echinocloa crus-galli [1]; 2000 g/ha): very good (a very good herbicidal activity is given at values of at least 85)
herbicidal activity (Amaranthus retroflexus; 2000 g/ha): very good (a very good herbicidal activity is given at values of at least 85)

OC(c1ccccc1)C(O)c1nc(C2CC2)ncc1-c1ccccc1Cl (stereo not drawn) [Ex. 153]
herbicidal activity (Avena fatua; 2000 g/ha): very good (a very good herbicidal activity is given at values of at least 85)
herbicidal activity (Echinocloa crus-galli [1]; 2000 g/ha): very good (a very good herbicidal activity is given at values of at least 85)
herbicidal activity (Alopecurus myosuroides; 2000 g/ha): very good (a very good herbicidal activity is given at values of at least 85)
herbicidal activity (Apera spica-venti; 2000 g/ha): very good (a very good herbicidal activity is given at values of at least 85)
herbicidal activity (Echinocloa crus-galli [2]; 2000 g/ha): very good (a very good herbicidal activity is given at values of at least 85)

OC1(Cc2nc(C3CC3)ncc2-c2ccccc2Cl)CCC1 [Ex. 65]
herbicidal activity (Echinocloa crus-galli [1]; 2000 g/ha): very good (a very good herbicidal activity is given at values of at least 85)
herbicidal activity (Amaranthus retroflexus; 2000 g/ha): very good (a very good herbicidal activity is given at values of at least 85)

Clc1ccccc1-c1cnc(C2CC2)nc1/C=C/c1c(Cl)ccc(Cl)c1Cl [Ex. 232]
herbicidal activity (Amaranthus retroflexus; 2000 g/ha): very good (a very good herbicidal activity is given at values of at least 85)

CCc1nc(C)c(-c2nc(C3CC3)ncc2-c2ccccc2Br)o1 [Ex. 290]
herbicidal activity (Avena fatua; 2000 g/ha): very good (a very good herbicidal activity is given at values of at least 85)
herbicidal activity (Echinocloa crus-galli [1]; 2000 g/ha): very good (a very good herbicidal activity is given at values of at least 85)
herbicidal activity (Alopecurus myosuroides; 2000 g/ha): very good (a very good herbicidal activity is given at values of at least 85)
herbicidal activity (Apera spica-venti; 2000 g/ha): very good (a very good herbicidal activity is given at values of at least 85)
herbicidal activity (Echinocloa crus-galli [2]; 2000 g/ha): very good (a very good herbicidal activity is given at values of at least 85)

COC(=O)Cc1nc(C2CC2)ncc1-c1ccccc1Cl [Ex. 32]
herbicidal activity (Avena fatua; 2000 g/ha): very good (a very good herbicidal activity is given at values of at least 85)
herbicidal activity (Echinocloa crus-galli [1]; 2000 g/ha): very good (a very good herbicidal activity is given at values of at least 85)
herbicidal activity (Alopecurus myosuroides; 2000 g/ha): very good (a very good herbicidal activity is given at values of at least 85)
herbicidal activity (Apera spica-venti; 2000 g/ha): very good (a very good herbicidal activity is given at values of at least 85)
herbicidal activity (Echinocloa crus-galli [2]; 2000 g/ha): very good (a very good herbicidal activity is given at values of at least 85)

OCc1nc(C2CC2)ncc1-c1ccc(F)cc1Cl [Ex. 15]
herbicidal activity (Avena fatua; 1000 g/ha): very good (a very good herbicidal activity is given at values of at least 85)
herbicidal activity (Amaranthus retroflexus; 1000 g/ha): good (A good herbicidal activity is given at values of at least 70)
herbicidal activity (Alopecurus myosuroides; 1000 g/ha): very good (a very good herbicidal activity is given at values of at least 85)
herbicidal activity (Apera spica-venti; 1000 g/ha): very good (a very good herbicidal activity is given at values of at least 85)
herbicidal activity (Echinocloa crus-galli [2]; 1000 g/ha): very good (a very good herbicidal activity is given at values of at least 85)

COC(=O)C(O)Cc1nc(C2CC2)ncc1-c1ccccc1Cl (stereo not drawn) [Ex. 129]
herbicidal activity (Echinocloa crus-galli [1]; 2000 g/ha): very good (a very good herbicidal activity is given at values of at least 85)
herbicidal activity (Amaranthus retroflexus; 2000 g/ha): very good (a very good herbicidal activity is given at values of at least 85)
herbicidal activity (Alopecurus myosuroides; 2000 g/ha): very good (a very good herbicidal activity is given at values of at least 85)
herbicidal activity (Apera spica-venti; 2000 g/ha): very good (a very good herbicidal activity is given at values of at least 85)

COc1ccc(-c2nc(C3CC3)ncc2-c2ccccc2Cl)cc1 [Ex. 164]
herbicidal activity (Amaranthus retroflexus; 2000 g/ha): very good (a very good herbicidal activity is given at values of at least 85)

COc1cnc(O)nc1-c1nc(C2CC2)ncc1-c1ccccc1Cl [Ex. 250]
herbicidal activity (Avena fatua; 2000 g/ha): very good (a very good herbicidal activity is given at values of at least 85)
herbicidal activity (Echinocloa crus-galli [1]; 2000 g/ha): very good (a very good herbicidal activity is given at values of at least 85)
herbicidal activity (Alopecurus myosuroides; 2000 g/ha): very good (a very good herbicidal activity is given at values of at least 85)
herbicidal activity (Apera spica-venti; 2000 g/ha): very good (a very good herbicidal activity is given at values of at least 85)
herbicidal activity (Echinocloa crus-galli [2]; 2000 g/ha): very good (a very good herbicidal activity is given at values of at least 85)

Cc1cc(-c2nc(C3CC3)ncc2-c2ccccc2Cl)sn1 [Ex. 254]
herbicidal activity (Echinocloa crus-galli [1]; 1000 g/ha): very good (a very good herbicidal activity is given at values of at least 85)
herbicidal activity (Amaranthus retroflexus; 1000 g/ha): very good (a very good herbicidal activity is given at values of at least 85)
herbicidal activity (Alopecurus myosuroides; 1000 g/ha): good (A good herbicidal activity is given at values of at least 70)

Clc1ccccc1-c1cnc(C2CC2)nc1C=C1CCC1 [Ex. 71]
herbicidal activity (Avena fatua; 2000 g/ha): very good (a very good herbicidal activity is given at values of at least 85)
herbicidal activity (Echinocloa crus-galli [1]; 2000 g/ha): good (A good herbicidal activity is given at values of at least 70)
herbicidal activity (Alopecurus myosuroides; 2000 g/ha): very good (a very good herbicidal activity is given at values of at least 85)
herbicidal activity (Apera spica-venti; 2000 g/ha): very good (a very good herbicidal activity is given at values of at least 85)
herbicidal activity (Echinocloa crus-galli [2]; 2000 g/ha): very good (a very good herbicidal activity is given at values of at least 85)

Clc1ccccc1-c1cnc(C2CC2)nc1-c1cncs1 [Ex. 245]
herbicidal activity (Avena fatua; 1000 g/ha): very good (a very good herbicidal activity is given at values of at least 85)
herbicidal activity (Echinocloa crus-galli [1]; 1000 g/ha): very good (a very good herbicidal activity is given at values of at least 85)
herbicidal activity (Alopecurus myosuroides; 1000 g/ha): very good (a very good herbicidal activity is given at values of at least 85)
herbicidal activity (Apera spica-venti; 1000 g/ha): very good (a very good herbicidal activity is given at values of at least 85)
herbicidal activity (Echinocloa crus-galli [2]; 1000 g/ha): good (A good herbicidal activity is given at values of at least 70)

COC(=O)CCc1nc(C2CC2)ncc1-c1ccccc1Cl [Ex. 132]
herbicidal activity (Echinocloa crus-galli [1]; 2000 g/ha): very good (a very good herbicidal activity is given at values of at least 85)
herbicidal activity (Amaranthus retroflexus; 2000 g/ha): good (A good herbicidal activity is given at values of at least 70)

OCCc1nc(C2CC2)ncc1-c1ccccc1Cl [Ex. 255]
herbicidal activity (Amaranthus retroflexus; 500 g/ha): good (A good herbicidal activity is given at values of at least 70)

COC(=O)Cc1nc(C2CC2)ncc1-c1cc(F)ccc1Cl [Ex. 150]
herbicidal activity (Echinocloa crus-galli [1]; 2000 g/ha): very good (a very good herbicidal activity is given at values of at least 85)
herbicidal activity (Amaranthus retroflexus; 2000 g/ha): very good (a very good herbicidal activity is given at values of at least 85)
herbicidal activity (Alopecurus myosuroides; 2000 g/ha): good (A good herbicidal activity is given at values of at least 70)
herbicidal activity (Apera spica-venti; 2000 g/ha): very good (a very good herbicidal activity is given at values of at least 85)
herbicidal activity (Echinocloa crus-galli [2]; 2000 g/ha): good (A good herbicidal activity is given at values of at least 70)

Brc1ccccc1-c1cnc(C2CC2)nc1-c1cnco1 [Ex. 261]
herbicidal activity (Avena fatua; 1000 g/ha): very good (a very good herbicidal activity is given at values of at least 85)
herbicidal activity (Echinocloa crus-galli [1]; 1000 g/ha): very good (a very good herbicidal activity is given at values of at least 85)
herbicidal activity (Alopecurus myosuroides; 1000 g/ha): very good (a very good herbicidal activity is given at values of at least 85)
herbicidal activity (Apera spica-venti; 1000 g/ha): very good (a very good herbicidal activity is given at values of at least 85)
herbicidal activity (Echinocloa crus-galli [2]; 1000 g/ha): very good (a very good herbicidal activity is given at values of at least 85)

Brc1ccccc1-c1cnc(C2CC2)nc1-c1csc2ccccc12 [Ex. 47]
herbicidal activity (Amaranthus retroflexus; 1000 g/ha): very good (a very good herbicidal activity is given at values of at least 85)

CC(O)C(O)c1nc(C2CC2)ncc1-c1ccccc1Cl (stereo not drawn) [Ex. 147]
herbicidal activity (Avena fatua; 2000 g/ha): very good (a very good herbicidal activity is given at values of at least 85)
herbicidal activity (Echinocloa crus-galli [1]; 2000 g/ha): very good (a very good herbicidal activity is given at values of at least 85)
herbicidal activity (Alopecurus myosuroides; 2000 g/ha): very good (a very good herbicidal activity is given at values of at least 85)
herbicidal activity (Apera spica-venti; 2000 g/ha): very good (a very good herbicidal activity is given at values of at least 85)
herbicidal activity (Echinocloa crus-galli [2]; 2000 g/ha): very good (a very good herbicidal activity is given at values of at least 85)
